The text below walks through data of patent US20240317792A1, “CYCLIC DINUCLEOTIDE METAL COMPOUND, AND PREPARATION AND APPLICATION THEREOF” (HANGZHOU XINGAO BIOTECHNOLOGY CO., LTD., priority 2022, published 2024).

In assay [1] the test system is ICR mice with ischemic cerebrovascular injury. As to the kind of experiment: MCAO ischemic cerebrovascular injury model, Zea longa behavioral score. The format is in vivo. Also noted: key: Zea longa: 0 = no neurological deficit, 4 = no spontaneous walking. The note with it: 10 mg/kg intraperitoneal, Zea longa 5-point score. As to the method: Experimental animals: healthy male Institute of Cancer Research (ICR) mice, weighing 18-20 grams, purchased from Shanghai SLAC Laboratory Animal Co. Ltd, with quality certificate No. (SCXK (Shanghai) 2007-0005), and kept in clean animal houses.
Mouse model: an ischemic cerebrovascular injury model was prepared by a middle cerebral artery occlusion (MCAO) method to verify therapeutic effect of the cyclic dinucleotide metal compounds on ischemic cerebrovascular diseases in the experimental animals.
Experimental method: the ICR mice were anesthetized with 10 wt. % of chloral hydrate by intraperitoneal injection, a mid-cervical incision was made to isolate and ligate a proximal segment, a carotid artery and a branch vessel of a right common carotid artery. A right internal carotid artery was isolated, a pterygoid artery was isolated down along the right internal carotid artery followed by root ligation. A wire was prepared on the proximal segment, and an arterial clip was placed on a distal segment. An incision was made at a branch of the right common carotid artery, and a nylon wire was tied in. A monofilament entered the internal carotid artery, a cranium to an anterior cerebral artery to block all sources of blood flow in a middle cerebral artery. The arterial clip was removed, and the wire prepared on the proximal segment was tied in followed by skin suture. The experimental animals were subjected to cage culture after operation. 2 h after the ischemia, the experimental animals were subjected to abdominal administration by injection, and the nylon wire was removed for reperfusion. 8 h after the reperfusion, the experimental animals were subjected to re-administration. After the operation, behavioral score was performed using a single-blind method with reference to the Zea longa 5-point scoring system, which was shown as follows: 0 point, normal performance with no neurological deficits; 1 point, contralateral forepaws could not fully extend; 2 points, circling to the opposite side when walking; 3 points, falling to the opposite side; 4 points, no spontaneous walking and loss of consciousness.
In the experiment, the ICR mice were divided into 7 groups (10 mice in each group). The 7 groups were listed as follows: A: AD model group, as a negative control group (administration: normal saline); B: cGAMP group, as a positive control group (administration: cyclic dinucleotide); C: [Li2(cGAMP)] group (administration: lithium cyclic dinucleotide prepared in Example 1); D: [Mg(cGAMP)] group (administration: magnesium cyclic dinucleotide prepared in Example 2); E: [Zn(cGAMP)] group (administration: zinc cyclic dinucleotide prepared in Example 5); F: [Mn(cGAMP)] group (administration: manganese cyclic dinucleotide prepared in Example 3); G: [Fe(cGAMP)] group (administration: ferrous cyclic dinucleotide prepared in Example 4); where a preparation method for administration in groups C-G were as follows. Powders prepared in the groups C-G were prepared to solutions of required concentration with normal saline. The administration dosage of every group was 10 mg/kg. And the ICR mice were administered by intraperitoneal injection. The ICR mice were administered once after 2 h of ischemia, then the nylon wire was removed for reperfusion. 8 h after the reperfusion, the ICR mice were administered once. After 24 h, the ICR mice were administered once a day for 7 consecutive days.

In assay [2] the test system is T(CD8+) cells. As to the kind of experiment: Flow cytometry of CD8+ T cells in spleen and lung after immunization. The assay is classed as in vivo, C57BL/6 ordinary mice. The note with it: after 14 days of immunization. The source says: Experimental animals: C57BL/6 ordinary mice, male, weighing 20-22 grams, 7-8 weeks old, purchased from Shanghai SLAC Laboratory Animal Co. Ltd.
The mice were randomly divided into 8 groups (10 mice in each group). The 8 groups were as listed follows: A: Negative control group (isotype control antibody group); B: blank group; C: cyclic dinucleotide group; D: [Li2(cGAMP)] group; E: [Mg(cGAMP)] group; F: [Zn(cGAMP)] group; G: [Mn(cGAMP)] group; and H: [Fe(cGAMP)] group. Isotype control flow antibody was purchased from eBiosciences, antibody magnetic strain was purchased from Militeny Biotech, and flow cytometry was purchased from BD company. After 14 days of immunization (immunization process was the same as that in the Example 12), spleens and lung tissues of the mice were collected, respectively mashed, filtered through 40 micron pores followed by 1000 rpm of centrifugation for 10 min to solate unlysed immune cells. Dendritic cells (DCs) (CD40\CD80\CD86\MHCII), T(CD8+) cells were separated, and added with corresponding FAC antibodies (diluted with Fluorescence-Activated Cell Sorting (FACS) buffer). Isotype control antibody was used as negative control. After antibody addition, the DCs and T (CD8+) cells were incubate for 1 h, centrifuged and washed by phosphate buffer saline (PBS) followed by analysis by the flow cytometry to sort suitable cells. Fluorescence intensity (MFI) of sorted cells was measured.
(In general: Flow cytometry measures light scatter and fluorescence of single cells or particles in a stream.)

Molecules are shown by their SMILES.

Regarding `Nc1nc2c(ncn2[C@@H]2O[C@@H]3COP(=O)([O-])O[C@H]4[C@@H](O)[C@H](n5cnc6c(N)ncnc65)O[C@@H]4COP(=O)([O-])O[C@@H]2[C@@H]3O)c(=O)[nH]1.[Zn+2]` [[Zn(cGAMP)], zinc cyclic dinucleotide], in assay [1], the “Score (7 h after operation)” value is 1.31 ± 0.15 and the “Score (24 h after operation)” value is 1.57 ± 0.38. In addition, in assay [2], the “Lung (% CD8 + T cells)” value is on record as 1.6 ± 0.2% and the “Spleen (% CD8 + T cells)” value came out at 8.6 ± 1.8%.

On to `Nc1nc2c(ncn2[C@@H]2O[C@@H]3COP(=O)(O)O[C@H]4[C@@H](O)[C@H](n5cnc6c(N)ncnc65)O[C@@H]4COP(=O)(O)O[C@@H]2[C@@H]3O)c(=O)[nH]1` [cGAMP, 2′3′-cGAMP, reference compound], for which, in assay [1], the “Score (7 h after operation)” value came to 1.67 ± 0.41 and the “Score (24 h after operation)” value is given as 2.15 ± 0.32. Besides, in assay [2], the “Lung (% CD8 + T cells)” value was 0.5 ± 0.2% and the “Spleen (% CD8 + T cells)” value is reported as 2.2 ± 0.2%.

Consider `Nc1nc2c(ncn2C2OC3COP(=O)([O-])OC4C(COP(=O)([O-])OC2C3O)OC(n2cnc3c(N)ncnc32)C4O)c(=O)[nH]1.[Fe+2]` (stereo not drawn) [[Fe(cGAMP)], ferrous cyclic dinucleotide], for which, in assay [1], the “Score (7 h after operation)” value was found to be 1.41 ± 0.29 and the “Score (24 h after operation)” value was determined as 1.67 ± 0.35. Also, in assay [2], the “Lung (% CD8 + T cells)” value came out at 0.7 ± 0.3% and the “Spleen (% CD8 + T cells)” value was 6.9 ± 1.2%.

In the case of `Nc1nc2c(ncn2[C@@H]2O[C@@H]3COP(=O)([O-])O[C@H]4[C@@H](O)[C@H](n5cnc6c(N)ncnc65)O[C@@H]4COP(=O)([O-])O[C@@H]2[C@@H]3O)c(=O)[nH]1.[Li+].[Li+]` [[Li2(cGAMP)], lithium cyclic dinucleotide], in assay [1], the “Score (7 h after operation)” value was found to be 1.49 ± 0.26 and the “Score (24 h after operation)” value is 1.82 ± 0.19. In assay [2], the “Lung (% CD8 + T cells)” value is reported as 0.6 ± 0.2% and the “Spleen (% CD8 + T cells)” value stood at 3.1 ± 0.3%.

For the compound `Nc1nc2c(ncn2C2OC3COP(=O)([O-])OC4C(COP(=O)([O-])OC2C3O)OC(n2cnc3c(N)ncnc32)C4O)c(=O)[nH]1.[Mn+2]` (stereo not drawn) [[Mn(cGAMP)], manganese cyclic dinucleotide], in assay [1], the “Score (7 h after operation)” value turned out to be 1.38 ± 0.27 and the “Score (24 h after operation)” value came to 1.62 ± 0.39. In addition, in assay [2], the “Lung (% CD8 + T cells)” value is given as 0.8 ± 0.3% and the “Spleen (% CD8 + T cells)” value was 7.5 ± 1.3%.

For the compound `Nc1nc2c(ncn2[C@@H]2O[C@@H]3COP(=O)([O-])O[C@H]4[C@@H](O)[C@H](n5cnc6c(N)ncnc65)O[C@@H]4COP(=O)([O-])O[C@@H]2[C@@H]3O)c(=O)[nH]1.[Mg+2]` [[Mg(cGAMP)], magnesium cyclic dinucleotide], in assay [1], the “Score (7 h after operation)” value was 1.09 ± 0.18 and the “Score (24 h after operation)” value is 1.18 ± 0.24. In assay [2], the “Lung (% CD8 + T cells)” value is 1.7 ± 0.3% and the “Spleen (% CD8 + T cells)” value came out at 6.2 ± 0.6%.
